Data published in patent publication US20250101077A1, “PEPTIDES AND PHARMACEUTICAL COMPOSITION FOR THE TREATMENT OF TUMOURS” (UNIVERSIDAD DE SALAMANCA, priority 2022, published 2025).

Columns and labels:
[1] = test system: G166 human glioblastoma stem cells; experiment: MTT colour viability test and phase-contrast images; assay type: cell-based; settings: 50 μM; for proliferation and survival of human glioblastoma stem cells: phase-contrast images at 48h and MTT at 0, 24, 48 and 72h, FIGS. 5 and 6; for morphology and viability of glioblastoma stem cells (MTT assay): FIG. 1
Method: The human glioblastoma stem cell line G166 was obtained from Biorep, deposited and characterised in Pollard et al., Cell Stem Cell. 4(6):568-80 (2009). The human glioblastoma stem cell line E22 was also obtained from Pollard lab (U. Edinburgh).
In all these cases, cells were cultured in neurobasal culture medium supplemented with 2% B27, 1% N2, 20 ng/mL EGF and 20 ng/mL bFGF, in laminin-coated culture plates, to generate adherent cell cultures. Thanks to their self-renewal capacity, when these cells are expanded in adherent cultures under these culture conditions, they maintain the above-mentioned properties, i.e. the characteristic glioblastoma stem cell phenotype and genotype, including their tumourigenicity, for more than 20 passages.
(§1) Different peptides based on the 266-283 sequence of Cx43 fused to TAT at its N-terminal end were used, all at a concentration of 50 μM, in culture medium and their effect was analysed at different treatment times. In parallel, these cells were analysed in the absence of treatment (control), in the presence of the antitumour peptide TAT-Cx43266-283 ([…]; corresponding to the peptide described in patent WO2014191608 A1 linked to the cell internalisation sequence TAT; SEQ ID NO: 35) and in the presence of the peptides without antitumour activity, TAT (YGRKKRRQRRR; SEQ ID NO: 7) and TAT-Cx43274-291 (YGRKKRRQRRR PTAPLSPMSPPGYKLVTG; SEQ ID NO: 26). For pull-down assays and visualization the peptides were fused to biotin via a C-terminal lysine.
For this study, cells were seeded at low density and the number of viable cells was determined at different days of treatment. For this purpose, the medium was removed and the cells were incubated with 300 μL of PBS in the presence of MTT (0.5 mg/mL) for 75 minutes in the dark at 37° C. in a CO2 incubator. The medium was then removed, and 500 μL of DMSO was added. The cells were shaken in the dark for 10 minutes. Finally, absorbance was determined at 570 nm.

albumin = albumin (Homo sapiens, UniProt P02768); experiment: Albumin binding by Western blot under native or denaturing and reducing conditions; settings: 2.5 μM biotinylated peptide plus 0.1% (w/v) albumin in PBS, native conditions, FIG. 8
Method: FIG. 8. TAT-Cx43266-283 and TAT-Cx43266-275 bind to albumin via a cysteine dependent mechanism. TAT, TAT-Cx43274-291, TAT-Cx43266-283, TAT-Cx43266-283F/A, TAT-Cx43266-283C/A and TAT-Cx43266-275 were fused to biotin to allow their analysis by Western blot. Solutions of each peptide plus albumin in PBS were analyzed in native (N) or denaturing and reducing conditions (DR) to identify their interaction with albumin. […] Note that the sensitivity of the Ponceau staining was not enough to detect the peptide at about 10 kDa, therefore only albumin bands are shown. […] Note that TAT-Cx43266-283 and TAT-Cx43266-275 appear bound to albumin under native conditions while denaturation and reduction promoted the release of these peptides.
Western blotting was performed as described previously (Jaraiz-Rodriguez, M. et al., Neuro-Oncology, 22, 493-504 (2020)). Briefly, 2.5 μM biotinylated peptides plus 0.1% (w/v) albumin in PBS were analysed by Western blot under native (N) or denaturing and reducing (DR) conditions. For native conditions, samples were analysed without further treatment. For denaturing and reducing conditions samples were treated with 0.1 M β-mercaptoethanol and 4% SDS and heated at 99° C. for 5 min. Samples were subjected to electrophoresis on NuPAGE Novex Bis-Tris 4-12% Midi gels (Life Technologies) at room temperature and constant voltage. Proteins were transferred to a nitrocellulose membrane (iBlot Gel Transfer Stacks Nitrocellulose) using an iBlot dry blotting system (Life Technologies). Membranes were incubated with Ponceau S staining solution for protein staining in red. After washing the membranes were blocked with 5% non-fat dry milk in PBS and then incubated with HRP-Streptavidin (1:5000; Dako P0397) for 30 minutes at room temperature. After extensive washing, the membranes were developed with a chemiluminescent substrate (Western Blotting Luminol Reagent; Santa Cruz Biotechnology) in a MicroChemi imaging system (Bioimaging Systems).

Y416-Src = molecular target: T1, Y416-Src (Homo sapiens, UniProt P12931); experiment: Pull-down of biotinylated peptides with NeutrAvidin beads, Western blot; assay type: binding; settings: 50 μM biotinylated peptide, 30 min, E22 glioblastoma stem cells, FIG. 9
T1 construct: endogenous in cells; host or cells: human E22 glioblastoma stem cells
Method: (§2) FIG. 9. Intracellular interactions of biotinylated TAT-Cx43266-283, TAT-Cx43266-283C/A and TAT-Cx43266-275 in human glioblastoma stem cells. Human E22 glioblastoma stem cells were incubated with 50 μM biotinylated TAT-Cx43266-283, TAT-Cx43266-283C/A and TAT-Cx43266-275. After 30 min the cells were lysed and biotinylated peptides attached to their intracellular partners were pulled down with NeutrAvidin beads. The eluted proteins were loaded and analyzed by Western blot to study the levels of c-Src, Y416-Src, and Csk.
(§3) Pulldown experiments were performed as described in González-Sánchez A. et al., Oncotarget, 7(31):49819-49833 (2016); Jaraiz-Rodriguez M. et al., J Vis Exp. (130):56457 (2017)). Confluent cells grown in 25 cm^2 flasks were incubated with 50 μM biotinylated peptides for 30 min. Proteins were then collected in 0.5 ml of lysis buffer (20 mM Tris-HCl (pH 8.0), 137 mM NaCl, 1% IGEPAL, 1 mM PMSF, protease cocktail (1:100; Cocktail Ill, Calbiochem), 1 mM NaF and 0.1 mM Na3VO4). Lysates were centrifuged at 11000×g for 10 minutes at 4° C., and the supernatants were recovered. A 50-μl aliquot of each lysate was used to analyze the protein content, and the remaining lysate was incubated with NeutrAvidin-Agarose (Thermo Scientific, Rockford, IL, USA; Ref. 29200) for 12 h at 4° C. with gentle shaking. The avidin beads bound with the peptides were collected by centrifugation (3000×g for 1 minutes at 4° C.). The beads were then washed five times with lysis buffer, and the bound proteins were eluted and analyzed by Western blotting under denaturing and reducing contidions. The membranes were blocked with 5% non-fat dry milk in PBS-T and then incubated overnight at 4° C. with the primary antibodies against rabbit CSK (1:250; Cell Signaling Technology, Ref. 4980), rabbit Y416 Src (1:250, Cell Signaling Technology, Ref. 2101) and mouse total c-Src (1:500, Cell Signaling Technology, Ref. 2110). To detect biotinylated peptides, the membranes were incubated with HRP-conjugated streptavidin in PBS (1:5000; Dako Ref.P0397) for 30 minutes and then developed with a chemiluminescent substrate.

Csk = molecular target: T2, Csk (Homo sapiens, UniProt P41240); experiment: as above; assay type: binding; settings: 50 μM biotinylated peptide, 30 min, E22 glioblastoma stem cells, FIG. 9
T2 construct: endogenous in cells; host or cells: human E22 glioblastoma stem cells
T2 sequence (P41240 whole entry): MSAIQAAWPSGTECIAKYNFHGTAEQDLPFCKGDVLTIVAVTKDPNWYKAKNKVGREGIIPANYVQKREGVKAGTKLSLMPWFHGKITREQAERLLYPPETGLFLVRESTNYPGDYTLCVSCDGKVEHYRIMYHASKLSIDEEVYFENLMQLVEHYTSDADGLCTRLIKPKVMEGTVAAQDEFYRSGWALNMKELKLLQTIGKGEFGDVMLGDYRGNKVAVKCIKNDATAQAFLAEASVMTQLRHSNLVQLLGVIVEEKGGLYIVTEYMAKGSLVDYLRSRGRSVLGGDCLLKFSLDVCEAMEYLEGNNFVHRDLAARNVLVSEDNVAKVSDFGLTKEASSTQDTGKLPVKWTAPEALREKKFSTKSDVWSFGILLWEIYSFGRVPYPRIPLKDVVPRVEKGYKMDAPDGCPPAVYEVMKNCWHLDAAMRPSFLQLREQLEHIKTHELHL
Method: as §2, §3

c-Src [2] = molecular target: T3, c-Src (Homo sapiens, UniProt P12931); experiment: as above; assay type: binding; parameters: the cells were lysed and biotinylated peptides attached to their intracellular partners were pulled down with NeutrAvidin beads; endogenous in cells; host or cells: human E22 glioblastoma stem cells; settings: 50 μM biotinylated peptide, 30 min, E22 glioblastoma stem cells, FIG. 9
Method: as §2
as §3, with “To detect biotinylated peptides, the membranes were incubated with HRP-conjugated streptavidin in PBS (1:5000; Dako Ref.P0397) for 30 minutes and then developed with a chemiluminescent substrate.” left out

[3] = test system: G166 human glioblastoma stem cells; experiment: Migration by live cell microscope videos; assay type: cell-based; settings: 50 μM, frames every 100 minutes, FIG. 7
Method: FIG. 7. Representative images of the effect of Cx43-based penetrating peptides on the migration of human glioblastoma stem cells. G166 human glioblastoma stem cells were treated in the absence (control) or presence of TAT-Cx43266-283 or TAT-Cx43266-275, both at a concentration of 50 μM. Phase-contrast videos of the cells were made using a live cell microscope. Shown are 3 representative frames taken every 100 minutes of the cells in the control condition, TAT-Cx43266-283 and TAT-Cx43266-275. 3 cells in each condition have been selected and numbered.
Migration is the cause of these tumour cells invading the surrounding parenchyma, escaping surgery and causing the recurrence of these tumours, which is the main cause of mortality.

[4] = test system: human glioblastoma stem cells; experiment: Internalisation of biotin-fused peptides; assay type: cell-based; settings: peptides fused to biotin
Method: as §1

[5] = test system: human and mouse glioblastoma stem cells; settings: in vitro and in vivo, from cited publications; cited from earlier work
c-Src [6] = molecular target: T3, c-Src; settings: from cited publications; cited from earlier work

YGRKKRRQRRR (Cell internalisation sequence) [TAT, reference compound]
proliferation and survival of human glioblastoma stem cells [1]: do not produce significant effects

YGRKKRRQRRR PTAPLSPMSPPGYKLVTG (YGRKKRRQRRRPTAPLSPMSPPGYKLVTG) [TAT-Cx43274-291, reference compound]
proliferation and survival of human glioblastoma stem cells [1]: do not produce significant effects

YGRKKRRQRRRAYANGCSSPTAPLSPMSP [TAT-Cx43266-283 F/A]
tumour cell morphology and viability (MTT assay) ([1]; 48h, FIG. 4): affects tumour cell morphology and viability, but to a much lesser extent | binding to albumin (albumin): did not affect the interaction with albumin

YGRKKRRQRRRAYFNGASSPTAPLSPMSP [TAT-Cx43266-283 C/A]
intracellular interaction with Y416-Src (Y416-Src): did not show significant interactions | intracellular interaction with Csk (Csk): did not show significant interactions | morphology and viability of glioblastoma stem cells (MTT assay) ([1]; 48h): very similar to that of untreated (control) cells | binding to albumin (albumin): disrupted albumin-peptide interaction | intracellular interaction with c-Src (c-Src [2]): did not show significant interactions

YGRKKRRQRRRAYFNGCSSPT [TAT-Cx43266-275]
intracellular interaction with Y416-Src (Y416-Src): interact preferentially | intracellular interaction with Csk (Csk): interact preferentially | anti-tumour effect compared with the other peptides (MTT assay) ([1]; 0-72h, FIG. 6): significantly higher than the rest of the peptides | proliferation and survival of human glioblastoma stem cells [1]: reduce proliferation and survival | binding to albumin (albumin): bind to albumin under native conditions | migration of human glioblastoma stem cells [3]: reduces the migration | internalisation in human glioblastoma stem cells [4]: able to be internalised | intracellular interaction with c-Src (c-Src [2]): interact preferentially

YGRKKRRQRRRAYFNGCSSPTAP [TAT-Cx43266-277]
proliferation and survival of human glioblastoma stem cells [1]: reduce proliferation and survival | internalisation in human glioblastoma stem cells [4]: able to be internalised

YGRKKRRQRRRAYFNGCSSPTAPLS [TAT-Cx43266-279]
proliferation and survival of human glioblastoma stem cells [1]: reduce proliferation and survival | internalisation in human glioblastoma stem cells [4]: able to be internalised

YGRKKRRQRRRAYFNGCSSPTAPLSPM [TAT-Cx43266-281]
proliferation and survival of human glioblastoma stem cells [1]: reduce proliferation and survival | internalisation in human glioblastoma stem cells [4]: able to be internalised

YGRKKRRQRRRAYFNGCSSPTAPLSPMSP [TAT-Cx43266-283, reference compound]
antitumour effect [5]: potent antitumour effect | intracellular interaction with Y416-Src (Y416-Src): interact preferentially | intracellular interaction with Csk (Csk): interact preferentially | morphology and viability of glioblastoma stem cells (MTT assay) ([1]; 48h): significantly reduces the viability | proliferation and survival of human glioblastoma stem cells [1]: reduce proliferation and survival | binding to albumin (albumin): bind to albumin under native conditions | migration of human glioblastoma stem cells [3]: reduces the migration | internalisation in human glioblastoma stem cells [4]: able to be internalised | intracellular interaction with c-Src (c-Src [2]): interact preferentially | c-Src activity (c-Src [6]): inhibit c-Src activity

YGRKKRRQRRRCSSPTAPLSPMSPPGYK [TAT-Cx43271-287]
glioblastoma stem cell survival and proliferation (MTT assay) ([1]; 72h, FIG. 2): slightly reduces glioblastoma stem cell proliferation

YGRKKRRQRRRFNGCSSPTAPLSPMSP [TAT-Cx43268-283]
ability to reduce proliferation (MTT assay) ([1]; 72h, FIG. 3): less ability to reduce proliferation than TAT-Cx43266-283
